Consider twelve compounds from ChEMBL document CHEMBL3991601, “The target landscape of clinical kinase drugs” (Science, 2017).

Each structure is given as a SMILES string. Activity calls are given as the source filed them.

Broadly, the Kd is the free concentration of one partner at which half of the binding sites on the other are occupied at equilibrium, for simple one-to-one binding.

The target of experiment [1] is Phosphatidylethanolamine-binding protein 1 (Homo sapiens, UniProt P30086).
For experiment [2], the target named is T1, Inhibitor of nuclear factor kappa-B kinase subunit epsilon (Homo sapiens, UniProt Q14164).
T1 sequence (Q14164 whole entry): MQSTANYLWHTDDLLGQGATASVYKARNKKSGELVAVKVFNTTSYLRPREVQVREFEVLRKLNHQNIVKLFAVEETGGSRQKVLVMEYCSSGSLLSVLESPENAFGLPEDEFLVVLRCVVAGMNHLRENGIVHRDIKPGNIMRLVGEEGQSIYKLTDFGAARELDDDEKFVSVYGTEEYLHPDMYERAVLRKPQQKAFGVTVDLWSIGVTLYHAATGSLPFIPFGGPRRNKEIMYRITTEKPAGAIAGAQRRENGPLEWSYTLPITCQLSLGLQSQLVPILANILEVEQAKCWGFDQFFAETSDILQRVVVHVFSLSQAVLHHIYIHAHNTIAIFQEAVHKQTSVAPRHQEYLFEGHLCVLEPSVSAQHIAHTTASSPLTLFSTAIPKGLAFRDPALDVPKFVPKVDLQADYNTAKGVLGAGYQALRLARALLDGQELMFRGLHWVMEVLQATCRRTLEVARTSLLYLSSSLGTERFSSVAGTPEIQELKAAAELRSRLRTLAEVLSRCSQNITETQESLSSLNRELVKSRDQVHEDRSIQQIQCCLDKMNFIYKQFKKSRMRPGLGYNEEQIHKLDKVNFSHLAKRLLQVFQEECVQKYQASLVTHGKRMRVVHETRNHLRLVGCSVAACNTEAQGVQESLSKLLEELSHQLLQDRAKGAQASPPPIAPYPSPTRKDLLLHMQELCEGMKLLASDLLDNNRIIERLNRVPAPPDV

Experiment [3] has as its target Guanine nucleotide-binding protein G(i) subunit alpha-2 (Homo sapiens, UniProt P04899).
Experiment [4] addresses Eukaryotic peptide chain release factor GTP-binding subunit ERF3B (Homo sapiens, UniProt Q8IYD1).
Experiment [5] has as its target Cyclin-dependent kinase 2 (Homo sapiens, UniProt P24941).
Experiment [6] deals with Dual specificity protein kinase CLK2 (Homo sapiens, UniProt P49760).
For experiment [7], the target named is Serine/threonine-protein kinase N3 (Homo sapiens, UniProt Q6P5Z2).
Experiment [8] deals with Tyrosine-protein kinase Fgr (Homo sapiens, UniProt P09769).
For experiment [9], the target named is T2, Adenine phosphoribosyltransferase (Homo sapiens, UniProt P07741).
T2 sequence (P07741 whole entry): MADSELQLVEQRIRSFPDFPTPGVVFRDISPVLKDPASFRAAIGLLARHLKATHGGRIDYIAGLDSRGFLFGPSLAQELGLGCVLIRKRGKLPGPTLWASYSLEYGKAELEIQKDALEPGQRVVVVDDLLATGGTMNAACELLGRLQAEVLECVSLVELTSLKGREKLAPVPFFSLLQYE

Experiment [10] addresses T3, Phosphatidylinositol 5-phosphate 4-kinase type-2 alpha (Homo sapiens, UniProt P48426).
T3 sequence (P48426 whole entry): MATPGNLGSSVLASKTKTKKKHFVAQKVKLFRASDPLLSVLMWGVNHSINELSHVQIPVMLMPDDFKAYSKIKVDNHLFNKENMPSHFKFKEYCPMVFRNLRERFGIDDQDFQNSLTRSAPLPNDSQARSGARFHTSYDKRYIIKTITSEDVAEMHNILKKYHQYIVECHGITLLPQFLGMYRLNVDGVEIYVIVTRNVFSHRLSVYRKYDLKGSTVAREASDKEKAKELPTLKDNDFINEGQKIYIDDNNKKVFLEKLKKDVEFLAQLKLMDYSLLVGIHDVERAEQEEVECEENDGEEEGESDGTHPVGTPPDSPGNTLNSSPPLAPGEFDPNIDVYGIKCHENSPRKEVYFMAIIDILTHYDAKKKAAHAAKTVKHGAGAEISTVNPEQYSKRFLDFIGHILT

In experiment [11] the target is MAP kinase-activated protein kinase 3 (Homo sapiens, UniProt Q16644).
Experiment [12] addresses Serine/threonine-protein kinase ATR (Homo sapiens, UniProt Q13535).
The target of experiment [13] is T4, Cyclin-dependent kinase-like 5 (Homo sapiens, UniProt O76039).
T4 sequence (O76039 whole entry): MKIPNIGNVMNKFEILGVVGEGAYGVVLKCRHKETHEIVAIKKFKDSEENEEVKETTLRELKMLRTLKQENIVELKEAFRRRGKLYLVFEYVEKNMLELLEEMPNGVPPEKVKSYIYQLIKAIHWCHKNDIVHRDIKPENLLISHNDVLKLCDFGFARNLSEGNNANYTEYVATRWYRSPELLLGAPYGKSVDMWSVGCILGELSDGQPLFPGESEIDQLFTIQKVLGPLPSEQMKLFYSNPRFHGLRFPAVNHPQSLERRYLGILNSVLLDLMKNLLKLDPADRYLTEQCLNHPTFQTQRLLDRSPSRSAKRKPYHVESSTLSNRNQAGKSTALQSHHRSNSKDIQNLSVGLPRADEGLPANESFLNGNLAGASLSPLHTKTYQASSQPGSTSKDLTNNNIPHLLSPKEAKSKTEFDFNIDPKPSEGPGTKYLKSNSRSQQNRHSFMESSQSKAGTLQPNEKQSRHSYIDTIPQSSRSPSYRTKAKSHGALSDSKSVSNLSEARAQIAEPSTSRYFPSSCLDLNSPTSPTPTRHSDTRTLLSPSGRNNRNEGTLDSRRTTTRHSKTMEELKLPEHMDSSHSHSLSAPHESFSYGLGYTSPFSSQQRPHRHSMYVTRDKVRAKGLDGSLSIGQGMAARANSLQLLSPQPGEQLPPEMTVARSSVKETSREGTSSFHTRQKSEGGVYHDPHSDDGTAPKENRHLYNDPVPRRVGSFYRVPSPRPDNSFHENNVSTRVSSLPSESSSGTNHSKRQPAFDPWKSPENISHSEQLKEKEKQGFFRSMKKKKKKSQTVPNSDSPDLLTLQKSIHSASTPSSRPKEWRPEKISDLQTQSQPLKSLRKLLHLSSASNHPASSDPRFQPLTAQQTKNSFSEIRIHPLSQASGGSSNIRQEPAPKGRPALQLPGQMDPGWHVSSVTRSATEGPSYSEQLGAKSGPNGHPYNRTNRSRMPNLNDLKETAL

Experiment [14] addresses Cyclin-dependent kinase 10 (Homo sapiens, UniProt Q15131).
Note: in the data inactive means no Kd found up to 30 µM.

Sequence of Dual specificity protein kinase CLK2 (P49760 whole entry): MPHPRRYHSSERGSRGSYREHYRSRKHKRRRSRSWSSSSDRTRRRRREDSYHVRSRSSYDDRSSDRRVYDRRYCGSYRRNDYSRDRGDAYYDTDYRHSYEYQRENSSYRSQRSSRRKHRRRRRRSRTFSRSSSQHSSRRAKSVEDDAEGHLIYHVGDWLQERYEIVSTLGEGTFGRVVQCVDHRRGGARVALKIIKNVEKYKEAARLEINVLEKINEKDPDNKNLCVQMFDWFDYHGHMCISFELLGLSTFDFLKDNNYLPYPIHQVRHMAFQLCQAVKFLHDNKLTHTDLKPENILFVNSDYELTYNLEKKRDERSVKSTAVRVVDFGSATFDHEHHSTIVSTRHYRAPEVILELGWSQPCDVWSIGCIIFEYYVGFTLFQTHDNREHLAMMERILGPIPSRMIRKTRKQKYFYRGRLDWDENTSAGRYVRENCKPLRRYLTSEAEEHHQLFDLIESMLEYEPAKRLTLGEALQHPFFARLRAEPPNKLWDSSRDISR
Sequence of Eukaryotic peptide chain release factor GTP-binding subunit ERF3B (Q8IYD1 whole entry): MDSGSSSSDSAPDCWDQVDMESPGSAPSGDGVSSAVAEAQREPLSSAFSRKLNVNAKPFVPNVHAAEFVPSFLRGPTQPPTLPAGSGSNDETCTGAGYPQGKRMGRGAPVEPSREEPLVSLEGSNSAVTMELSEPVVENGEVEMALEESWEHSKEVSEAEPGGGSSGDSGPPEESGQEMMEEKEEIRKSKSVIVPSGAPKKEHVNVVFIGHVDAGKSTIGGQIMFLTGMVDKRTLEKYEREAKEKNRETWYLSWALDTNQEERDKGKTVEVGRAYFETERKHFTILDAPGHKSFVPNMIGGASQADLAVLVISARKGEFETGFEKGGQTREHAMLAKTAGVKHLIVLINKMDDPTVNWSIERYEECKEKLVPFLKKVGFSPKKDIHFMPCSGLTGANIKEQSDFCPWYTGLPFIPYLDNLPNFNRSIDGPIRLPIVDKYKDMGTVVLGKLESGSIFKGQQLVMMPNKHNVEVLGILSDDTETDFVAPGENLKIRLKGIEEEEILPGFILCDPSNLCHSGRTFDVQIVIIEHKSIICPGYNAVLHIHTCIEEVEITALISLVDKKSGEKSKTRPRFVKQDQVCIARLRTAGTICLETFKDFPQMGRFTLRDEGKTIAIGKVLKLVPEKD
Sequence of Guanine nucleotide-binding protein G(i) subunit alpha-2 (P04899 whole entry): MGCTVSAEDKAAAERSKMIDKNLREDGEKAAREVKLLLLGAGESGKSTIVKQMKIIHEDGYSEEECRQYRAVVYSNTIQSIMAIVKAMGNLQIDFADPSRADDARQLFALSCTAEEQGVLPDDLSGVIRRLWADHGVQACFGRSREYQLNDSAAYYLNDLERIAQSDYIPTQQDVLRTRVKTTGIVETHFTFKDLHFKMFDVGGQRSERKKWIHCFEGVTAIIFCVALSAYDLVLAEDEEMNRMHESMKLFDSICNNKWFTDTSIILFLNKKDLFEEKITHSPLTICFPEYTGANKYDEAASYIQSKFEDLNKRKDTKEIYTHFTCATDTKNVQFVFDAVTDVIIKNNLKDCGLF
Sequence of Cyclin-dependent kinase 10 (Q15131 whole entry): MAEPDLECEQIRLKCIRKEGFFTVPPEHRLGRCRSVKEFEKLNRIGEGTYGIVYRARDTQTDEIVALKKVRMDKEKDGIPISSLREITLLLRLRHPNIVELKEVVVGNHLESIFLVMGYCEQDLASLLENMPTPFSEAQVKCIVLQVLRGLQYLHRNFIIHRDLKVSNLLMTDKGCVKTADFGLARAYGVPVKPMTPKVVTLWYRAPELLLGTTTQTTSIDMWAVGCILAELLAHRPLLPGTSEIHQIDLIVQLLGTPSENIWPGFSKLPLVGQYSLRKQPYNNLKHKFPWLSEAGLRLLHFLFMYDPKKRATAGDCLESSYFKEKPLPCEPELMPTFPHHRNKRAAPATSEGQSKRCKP
Sequence of Tyrosine-protein kinase Fgr (P09769 whole entry): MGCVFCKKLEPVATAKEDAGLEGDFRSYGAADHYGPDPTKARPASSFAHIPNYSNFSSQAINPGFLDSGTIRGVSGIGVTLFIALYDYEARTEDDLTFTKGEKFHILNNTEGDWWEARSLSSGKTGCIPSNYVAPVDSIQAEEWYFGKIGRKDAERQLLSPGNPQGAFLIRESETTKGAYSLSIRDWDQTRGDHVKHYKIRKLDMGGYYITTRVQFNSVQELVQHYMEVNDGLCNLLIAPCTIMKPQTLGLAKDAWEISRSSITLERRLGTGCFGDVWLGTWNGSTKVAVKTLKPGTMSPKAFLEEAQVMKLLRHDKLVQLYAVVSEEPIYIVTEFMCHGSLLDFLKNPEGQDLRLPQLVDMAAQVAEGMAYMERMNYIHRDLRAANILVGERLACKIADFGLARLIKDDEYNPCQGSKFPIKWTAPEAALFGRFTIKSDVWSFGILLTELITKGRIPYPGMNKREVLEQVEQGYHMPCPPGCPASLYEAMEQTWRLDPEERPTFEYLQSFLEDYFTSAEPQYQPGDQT
Sequence of Serine/threonine-protein kinase N3 (Q6P5Z2 whole entry): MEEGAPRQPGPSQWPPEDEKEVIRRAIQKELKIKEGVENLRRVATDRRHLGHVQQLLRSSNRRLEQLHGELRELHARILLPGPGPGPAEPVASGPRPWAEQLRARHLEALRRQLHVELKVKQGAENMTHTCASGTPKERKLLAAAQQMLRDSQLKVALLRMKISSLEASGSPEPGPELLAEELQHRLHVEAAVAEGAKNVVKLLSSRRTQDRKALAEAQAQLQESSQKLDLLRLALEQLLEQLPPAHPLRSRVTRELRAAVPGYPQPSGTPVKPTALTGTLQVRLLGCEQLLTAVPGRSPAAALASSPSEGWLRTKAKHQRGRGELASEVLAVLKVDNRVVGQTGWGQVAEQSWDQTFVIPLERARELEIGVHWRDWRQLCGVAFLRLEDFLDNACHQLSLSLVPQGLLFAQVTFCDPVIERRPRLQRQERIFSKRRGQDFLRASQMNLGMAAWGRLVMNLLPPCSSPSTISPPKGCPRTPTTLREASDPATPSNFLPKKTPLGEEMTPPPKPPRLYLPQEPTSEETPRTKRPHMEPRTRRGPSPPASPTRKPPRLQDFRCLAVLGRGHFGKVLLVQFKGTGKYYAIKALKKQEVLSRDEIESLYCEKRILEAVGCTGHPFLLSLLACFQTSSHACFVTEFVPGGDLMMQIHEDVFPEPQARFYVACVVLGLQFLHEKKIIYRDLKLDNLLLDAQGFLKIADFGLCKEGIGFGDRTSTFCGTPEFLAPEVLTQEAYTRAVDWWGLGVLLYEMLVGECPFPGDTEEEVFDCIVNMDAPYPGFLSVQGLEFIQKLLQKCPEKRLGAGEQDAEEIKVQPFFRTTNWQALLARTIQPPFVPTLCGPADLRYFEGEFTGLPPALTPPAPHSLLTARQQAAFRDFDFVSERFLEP
Sequence of Phosphatidylethanolamine-binding protein 1 (P30086 whole entry): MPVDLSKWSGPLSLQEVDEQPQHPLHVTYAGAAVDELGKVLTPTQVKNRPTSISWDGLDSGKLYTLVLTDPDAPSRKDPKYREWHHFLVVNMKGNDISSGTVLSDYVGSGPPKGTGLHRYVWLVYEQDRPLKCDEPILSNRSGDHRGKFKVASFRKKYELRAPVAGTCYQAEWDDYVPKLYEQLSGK
Sequence of MAP kinase-activated protein kinase 3 (Q16644 whole entry): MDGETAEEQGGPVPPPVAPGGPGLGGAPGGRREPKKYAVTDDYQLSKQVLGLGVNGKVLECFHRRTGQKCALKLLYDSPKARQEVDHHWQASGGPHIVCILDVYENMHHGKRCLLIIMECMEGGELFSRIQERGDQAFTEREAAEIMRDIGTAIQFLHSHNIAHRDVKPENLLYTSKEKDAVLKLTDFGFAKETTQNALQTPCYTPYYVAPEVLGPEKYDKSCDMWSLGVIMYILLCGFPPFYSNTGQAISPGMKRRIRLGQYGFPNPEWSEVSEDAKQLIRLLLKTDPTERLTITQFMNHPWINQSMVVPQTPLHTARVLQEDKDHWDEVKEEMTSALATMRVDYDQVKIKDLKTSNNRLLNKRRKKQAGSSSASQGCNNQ

`CO[C@H]1C[C@@H]2CC[C@@H](C)[C@@](O)(O2)C(=O)C(=O)N2CCCC[C@H]2C(=O)O[C@H]([C@H](C)C[C@@H]2CC[C@@H](OCCO)[C@H](OC)C2)CC(=O)[C@H](C)/C=C(\C)[C@@H](O)[C@@H](OC)C(=O)[C@H](C)C[C@H](C)/C=C/C=C/C=C/1C` [EVEROLIMUS]: the Kd in experiment [1], in [2], in experiment [3], in experiment [4], in experiment [5] and in experiment [6] was > 30 µM (inactive) throughout. The Kd in [7], in experiment [8], in experiment [9] and in [10] was > 30 µM (inactive) throughout.
Turning to `CCS(=O)(=O)N1CC(CC#N)(n2cc(-c3ncnc4[nH]ccc34)cn2)C1` [BARICITINIB], the Kd in [11], in [1], in experiment [2], in [3], in experiment [4] and in experiment [5] was > 30 µM (inactive) in each case. The Kd in [6], in experiment [12] and in experiment [9] was > 30 µM (inactive) each time.
On to `Cn1cc(-c2ccc3nnc(C(F)(F)c4ccc5ncccc5c4)n3n2)cn1` [JNJ-38877605], for which the Kd in experiment [1], in experiment [2], in [3], in [13], in experiment [5] and in experiment [14] was > 30 µM (inactive) each time. Also, the Kd in experiment [6], in experiment [12], in [7], in experiment [8], in experiment [9] and in [10] was > 30 µM (inactive) throughout.
As to `CN1CCN(c2ccc3nc(-c4c(N)c5c(F)cccc5[nH]c4=O)[nH]c3c2)CC1` [DOVITINIB], the Kd in [14] and in experiment [10] was > 30 µM (inactive) each time.
With `Cc1cc(Nc2cc(N3CCN(C)CC3)nc(/C=C/c3ccccc3)n2)n[nH]1` [ENMD-2076], the Kd in experiment [1], in experiment [3], in [14] and in experiment [9] was > 30 µM (inactive) in each case.
Take `CNC(=O)c1ccc(-c2cnc3ncc(Cc4ccc5ncccc5c4)n3n2)cc1F` [CAPMATINIB]: the Kd in experiment [1] is > 30 µM (inactive); in experiment [2] it was > 30 µM (inactive); in [3] it was > 30 µM (inactive); in experiment [13] it was 2.04 µM; in experiment [4], > 30 µM (inactive); in [5] it was > 30 µM (inactive). Besides, the Kd in experiment [12], in experiment [7], in experiment [9] and in experiment [10] was > 30 µM (inactive) throughout.
Regarding `CNC(=O)c1cc(Oc2ccc(NC(=O)Nc3ccc(Cl)c(C(F)(F)F)c3)c(F)c2)ccn1` [REGORAFENIB], the Kd in experiment [1], in [2], in [3], in [5], in experiment [14] and in experiment [6] was > 30 µM (inactive) each time. Besides, the Kd in [7], in experiment [8], in experiment [9] and in experiment [10] was > 30 µM (inactive) each time.
Take `COc1cc2nccc(Oc3ccc(NC(=O)Nc4cc(C)on4)c(Cl)c3)c2cc1OC` [TIVOZANIB]: the Kd in experiment [1] was 0.003 µM; in [2] it was > 30 µM (inactive); in experiment [3] it was > 30 µM (inactive); in [13], > 30 µM (inactive); in [5], > 30 µM (inactive); in experiment [14] it was > 30 µM (inactive). The Kd in [6], in experiment [12], in [7], in [9] and in experiment [10] was > 30 µM (inactive) each time.
Regarding `N[C@@H]1CCCN(c2c(/C=C3\SC(=O)NC3=O)cccc2-c2ccccc2)C1`, the Kd in experiment [1], in experiment [2], in [3], in experiment [13], in experiment [4] and in experiment [5] was > 30 µM (inactive) throughout. For the same compound, the Kd in [6], in [9] and in [10] was > 30 µM (inactive) throughout.
For the compound `CC[C@@H]1C(=O)N(C)c2cnc(Nc3ccc(C(=O)N[C@H]4CC[C@H](N5CCN(CC6CC6)CC5)CC4)cc3OC)nc2N1C(C)C` [VOLASERTIB], the Kd in [1], in [2], in experiment [3], in experiment [5], in experiment [14] and in experiment [6] was > 30 µM (inactive) in each case. Moreover, the Kd in [7], in [8], in experiment [9] and in [10] was > 30 µM (inactive) each time.
As to `CCn1c(=O)c(-c2cc[nH]n2)cc2c(C)nc(N)nc21` [VOXTALISIB], the Kd in experiment [1], in experiment [3], in [4], in [5], in [9] and in [10] was > 30 µM (inactive) each time.
For `COC(=O)[C@@]1(O)C[C@H]2O[C@]1(C)n1c3ccccc3c3c4c(c5c6ccccc6n2c5c31)C(=O)NC4` [K-252A], the Kd is > 30 µM (inactive) in [11]; 0.494 µM (active) in [2]; > 30 µM (inactive) in experiment [13]; > 30 µM (inactive) in [14]; 3.81 µM (active) in experiment [6]; > 30 µM (inactive) in [7]. The Kd in experiment [10] is > 30 µM (inactive).
